Like-named read-outs stand apart in the source and are kept apart here.
Molecular target: T1, human mGluR5A (Homo sapiens, UniProt P41594)
T1 construct: expressed in transfected cells; host or cells: CHO (Chinese Hamster Ovary) cells, kept under Puromycin and Zeocin selection
Assay: Fluorescent Ca2+ mobilization (FLIPR) assay, potentiation of a sub-threshold (EC20, 300 nM) glutamate response
Type: cell-based
Conditions: CHO cells expressing human mGluR5A, potentiation in the presence of 300 nM glutamate
Text: The utility of the compounds in accordance with the present invention as positive allosteric modulators of metabotropic glutamate receptor activity, in particular mGluR5 activity, may be readily determined without undue experimentation by methodology well known in the art, including O'Brien et al., Molecular Pharmacology 2003, 64(3) 731-740. In particular, the compounds of the following examples had activity in reference assays by enhancing mGluR5 activity. […] Changes in intracellular Ca^2+ were measured with Fluo-4AM ester (Invitrogen/Molecular Probes), which was detected on a Fluorometric Imaging Plate Reader (FLIPR, Molecular Devices, Sunnyvale, Calif.). In a typical experiment the mGluR5 positive allosteric modulatory activity of the compounds of the present invention was determined in accordance with the following experimental method.
Chinese Hamster Ovary (CHO) cells expressing human mGluR5A were maintained in growth medium containing DMEM, 10% dialyzed Fetal Bovine Serum, 50 units/mL Penicillin, 50 ug/mL Streptomycin, 2 mM L-glutamine, 1×MEM non-essential amino acids, 1 mM sodium pyruvate, 25 mM HEPES, 55 uM 2-mercaptoethanol, 5 ug/mL Puromycin, and 250 ug/mL Zeocin at 37° C. and 5% CO2. The day before the experiment, the cells were washed and seeded in “plating media” containing only DMEM, 10% dialyzed Fetal Bovine Serum, 50 units/mL Penicillin, and 50 ug/mL Streptomycin at a density of 50,000 cells/well (100 uL/well) in black 384-well clear-bottom PDL-coated plates. The cells were grown overnight at 37° C. and 6% CO2. This overnight glutamine/glutamate starvation allowed for consistent expression of the mGluR5A receptor, and the ability to add a known amount of agonist (glutamate in most cases) on the day of the experiment.
The day of the experiment, the cells were washed with 37° C. Assay Buffer (Hanks Balanced Salt Solution with CaCl2 and MgCl2, 20 mM HEPES, 2.5 mM Probenecid, 0.1% BSA) with an automated plate washer (3×100 uL, aspiration 3 mm from bottom leaving ˜30 uL of buffer in each well). After washing, 30 uL of dye loading buffer (4 uM Fluo-4AM, 0.04% Pluronic acid, and 1% dialyzed FBS in assay buffer) were added to each well of the plates for 2 uM Fluo-4AM final concentration. The plates were incubated at 37° C. and 6% CO2 for 1 hour to allow for dye loading. After dye loading, the cells were washed again as above, and placed on the FLIPR. Assays were conducted with two possible scenarios: 1) To determine the potencies of the compounds, as either agonists of mGluR5 or potentiators of mGluR5 in the presence of a sub-threshold amount of glutamate, 10-point titrations of the compounds (1:3 dilution between each point, 30-0.0015 uM final concentrations) were added to the cells, followed by the addition of the EC20 of glutamate (300 nM) to the cells. 2) To determine the cooperativity of the compounds with the natural agonist (glutamate), single concentrations of the compounds were added to the cells, followed by the addition of a 10-point titration of glutamate (1:3 dilution between each point, 1000-0.05 uM final concentrations). […] For both scenarios above, operation of the FLIPR was the same. Baseline fluorescence was monitored for 10 seconds, followed by the addition of compounds diluted in Assay Buffer (1% DMSO concentration after this addition, 0.66% final DMSO concentration after agonist addition). After monitoring fluorescence for 5 minutes, during which time any intrinsic agonist activity of the compounds would have been detected, the agonist (glutamate) also diluted in assay buffer was then added to the cells. The response was then monitored for an additional 3 minutes. In scenario #1, the peak during the final 3 minutes was used for potentiator data, and the peak during the 5 minutes post compound addition was used for compound agonist data. […]

[1] = about/generally, read-out: EC50 for potentiating/enhancing the mGluR5 receptor in the FLIPR assay
[2] = inflection points, read-out: Representative FLIPR EC50 Values

T1 sequence (P41594 21-1180 isoform P41594-2 limits assumed): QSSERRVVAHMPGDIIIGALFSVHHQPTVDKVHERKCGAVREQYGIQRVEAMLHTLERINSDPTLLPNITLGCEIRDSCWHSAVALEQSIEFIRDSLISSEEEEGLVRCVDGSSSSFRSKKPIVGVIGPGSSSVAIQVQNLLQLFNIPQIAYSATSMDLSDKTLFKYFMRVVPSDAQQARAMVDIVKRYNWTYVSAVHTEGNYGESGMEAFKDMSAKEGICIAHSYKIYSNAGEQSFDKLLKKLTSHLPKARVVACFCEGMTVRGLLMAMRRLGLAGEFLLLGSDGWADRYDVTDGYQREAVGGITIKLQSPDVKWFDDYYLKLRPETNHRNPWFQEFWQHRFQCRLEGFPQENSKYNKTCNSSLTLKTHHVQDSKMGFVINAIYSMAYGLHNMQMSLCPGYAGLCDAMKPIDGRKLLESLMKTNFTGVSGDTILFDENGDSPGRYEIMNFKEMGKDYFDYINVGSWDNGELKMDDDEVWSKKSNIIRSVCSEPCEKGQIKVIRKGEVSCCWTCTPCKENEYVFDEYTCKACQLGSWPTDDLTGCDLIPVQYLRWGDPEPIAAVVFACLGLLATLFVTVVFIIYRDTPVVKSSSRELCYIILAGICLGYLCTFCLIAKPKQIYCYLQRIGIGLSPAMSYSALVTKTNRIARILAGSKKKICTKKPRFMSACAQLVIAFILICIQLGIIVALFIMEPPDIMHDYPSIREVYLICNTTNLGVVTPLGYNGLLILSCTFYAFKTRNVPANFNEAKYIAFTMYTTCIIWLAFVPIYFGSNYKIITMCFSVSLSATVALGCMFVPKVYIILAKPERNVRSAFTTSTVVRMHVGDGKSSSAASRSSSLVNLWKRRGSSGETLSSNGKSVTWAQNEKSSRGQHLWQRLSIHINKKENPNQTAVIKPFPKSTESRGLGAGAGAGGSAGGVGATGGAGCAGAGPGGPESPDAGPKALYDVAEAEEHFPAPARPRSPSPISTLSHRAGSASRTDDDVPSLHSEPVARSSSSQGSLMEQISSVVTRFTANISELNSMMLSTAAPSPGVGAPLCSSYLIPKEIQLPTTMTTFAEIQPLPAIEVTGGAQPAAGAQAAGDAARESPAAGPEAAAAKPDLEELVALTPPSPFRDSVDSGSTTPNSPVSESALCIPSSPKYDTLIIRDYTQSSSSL

Row | SMILES | EC50 [1] | EC50 [2]
1 | Cc1c[nH]c(-c2noc([C@H]3CC[C@H]4CCc5ccccc5C(=O)N4C3)n2)c1 [Example 1-5, cis-(3S,12aS)-3-(3-(4-Methyl-1H-pyrrol-2-yl)-1,2,4-oxadiazol-5-yl)-1,3,4,11,12,12a-hexahydrobenzo[e]pyrido[1,2-a]azepin-6(2H)-one] | < 1000 nM | 16 nM
2 | N#Cc1ccc2c(c1)CCC1CCC(c3nc(-c4cc(Cl)c[nH]4)no3)CN1C2=O (racemic) [Example 18-1, (±) cis-9-cyano-3-[3-(4-chloro1H-pyrrol-2-yl)-1,2,4-oxadiazol-5-yl]-1,3,4,11,12,12a-hexahydropyrido[1,2-b][2]benzazepin-6(2H)-one] | < 1000 nM | 50 nM
3 | O=C1c2ccc(F)cc2CC[C@@H]2CC[C@H](c3nc(-c4cc(Cl)c[nH]4)no3)CN12 [Example 3-1, (3S,12aS)-9-Fluoro-3-[3-(4-chloro1H-pyrrol-2-yl)-1,2,4-oxadiazol-5-yl]-1,3,4,11,12,12a-hexahydropyrido[1,2-b][2]benzazepin-6(2H)-one] | < 1000 nM | 8 nM
4 | COc1ccc2c(n1)CC[C@@H]1CC[C@H](c3nc(-c4cc(Cl)c[nH]4)no3)CN1C2=O [Example 13-2, (8S,10aS)-8-[3-(4-chloro-1H-pyrrol-2-yl)-1,2,4-oxadiazol-5-yl]-2-methoxy-8,9,10,10a,11,12-hexahydrodipyrido[1,2-a:2′,3′-e]azepin-5(7H)-one] | < 1000 nM | –
5 | O=C1c2ccccc2OC[C@@H]2CC[C@H](c3nc(-c4cc(Cl)c[nH]4)no3)CN12 [Example 11-8, (6aS,9S)-9-[3-(4-chloro-1H-pyrrol-2-yl)-1,2,4-oxadiazol-5-yl]-6,6a,7,8,9,10-hexahydro-12H-pyrido[2,1-c][1,4]benzoxazepin-12-one] | < 1000 nM | 71 nM
6 | Cc1c[nH]c(-c2noc(C3CCC4C=Cc5ccccc5C(=O)N4C3)n2)c1 (racemic) [Example 7-7, (±) cis-(Z)-3-[3-(4-methyl-1H-pyrrol-2-yl)-1,2,4-oxadiazol-5-yl]-1,3,4,12a-tetrahydropyrido[1,2-b][2]benzazepin-6(2H)-one] | < 1000 nM | 31 nM
7 | O=C1c2cnc(F)cc2CC[C@@H]2CC[C@H](c3noc(-c4ccc(F)cn4)n3)CN12 (single isomer, unassigned) [Example 24-6] | < 1000 nM | –
8 | O=C1c2ccc(F)cc2C(F)(F)C[C@@H]2CC[C@H](c3nc(-c4ccc(F)cn4)no3)CN12 (racemic) [Example 20-3, (±) cis-9,11,11-trifluoro-3-[3-(5-fluoropuridin-2-yl)-1,2-4-oxadiazol-5-yl]-1,3,4,11,12,12a-hexahydropyrido[1,2-b][2]benzazepin-6(2H)-one] | < 1000 nM | –

— patent publication US20130210804A1, “TRICYCLIC MGLUR5 RECEPTOR MODULATORS” (priority 2010, published 2013)
